Laboratory results reported in ChEMBL document CHEMBL6153122, “Antimycobacterial Activities of the Zanthoxylum leprieurii Metabolite Adubangoamide and Non-Natural Fagaramide Analogues” (2025).
Converted amounts (≈) assume the structure as drawn.

Legend:
Format in all cases: functional
[1] = tested on: Mycobacterium tuberculosis; assay: Antimycobacterial activity against drug-susceptible Mycobacterium tuberculosis H37Rv by microplate Alamar blue assay
[2] = tested on: Mycobacterium tuberculosis; assay: Potency index, ratio of trans-fagaramide MIC to test compound MIC for antimycobacterial activity against drug-susceptible Mycobacterium tuberculosis H37Rv
[3] = tested on: Mycobacterium tuberculosis; assay: Antimycobacterial activity against drug-susceptible Mycobacterium tuberculosis H37Rv

O=C(/C=C/c1ccc2c(c1)OCO2)NCc1cc(F)cc(F)c1
MIC [1]: 6.1 µM (≈ 1.94 µg/mL) | Ratio [2]: 6

CC(C)CNC(=O)/C=C/c1ccc2c(c1)OCO2 [FOGARAMIDE]
MIC [3]: 32 µM (≈ 7.91 µg/mL)

CO[C@H]1/C=C/O[C@@]2(C)Oc3c(C)c(O)c4c(O)c(c(/C=N/N5CCN(C)CC5)c(O)c4c3C2=O)NC(=O)/C(C)=C\C=C\[C@H](C)[C@H](O)[C@@H](C)[C@@H](O)[C@@H](C)[C@H](OC(C)=O)[C@@H]1C [RIFAMPIN]
MIC [1]: 0.3 µM (≈ 0.247 µg/mL)

O=C(/C=C/c1ccc2c(c1)OCO2)NCc1ccc(N2CCC(C(F)(F)F)CC2)cc1
MIC [1]: 4.5 µM (≈ 1.95 µg/mL) | Ratio [2]: 6

COc1cccc(CNC(=O)/C=C/c2ccc3c(c2)OCO3)c1
MIC [1]: 200 µM (≈ 62.3 µg/mL)

O=C(/C=C/c1ccc2c(c1)OCO2)NCc1ccccc1
MIC [1]: 167 µM (≈ 47 µg/mL)

O=C(/C=C/c1ccc2c(c1)OCO2)NCc1ccccc1Cl
MIC [1]: 100 µM (≈ 31.6 µg/mL)

O=C(/C=C/c1ccc2c(c1)OCO2)NCc1ccc(N2CCC(c3ccc(F)cc3)CC2)cc1
MIC [1]: 17 µM (≈ 7.8 µg/mL)

CC(C)=CCOc1ccc(/C=C/C(=O)NCC(C)C)cc1
MIC [1]: 10 µM (≈ 2.87 µg/mL) | Ratio [2]: 3

O=C(/C=C/c1ccc2c(c1)OCO2)NCc1ccc(C(F)(F)F)cc1F
MIC [1]: 21 µM (≈ 7.71 µg/mL)

CN(C)c1ccc(CNC(=O)/C=C/c2ccc3c(c2)OCO3)cc1
MIC [1]: 6 µM (≈ 1.95 µg/mL) | Ratio [2]: 6
